The values below come from PMC3759421, “Blocking Plasmodium falciparum Development via Dual Inhibition of Hemoglobin Degradation and the Ubiquitin Proteasome System by MG132” (PLoS ONE, 2013).

For assay [1], the target named is T1, falcipain-2 (FP2) (Plasmodium falciparum, UniProt Q8I6U4).
T1 construct: gene FP2A; carboxy-terminus region of the prodomain (36 amino acid residues) and the entire mature protease domain
Briefly: recombinant enzyme inhibition, Z-LR-AMC hydrolysis progress curves (association rate constant). The class given is biochemical. The following applies: read-out: FP2.

Assay [2] concerns the target T2, falcipain-3 (FP3) (Plasmodium falciparum, UniProt Q8IIL0).
T2 construct: carboxy-terminus region of the prodomain (35 amino acid residues) and the entire mature protease domain
Described as above. In kind it is biochemical. The settings on record: read-out: FP3. The text has this: recombinant enzyme inhibition, Z-LR-AMC hydrolysis progress curves (association rate constant) on falcipain-3 (FP3) | MG132 and E64 inhibited hydrolysis of Z-LR-AMC by both enzymes (Figure 4B), confirming that MG132 is a falcipain inhibitor

Assay [3] deals with T2, falcipain-3 (FP3). Briefly: recombinant enzyme inhibition, Z-LR-AMC hydrolysis progress curves (association rate constant); active site titration. In kind it is biochemical. The following applies: read-out: FP3. The text has this: recombinant enzyme inhibition, Z-LR-AMC hydrolysis progress curves (association rate constant); active site titration on falcipain-3 (FP3) | MG132 and E64 inhibited hydrolysis of Z-LR-AMC by both enzymes (Figure 4B)

Assay [4] concerns the target T1, falcipain-2 (FP2). Briefly: biochemical. The following applies: read-out: FP2. The method, then: recombinant enzyme inhibition, Z-LR-AMC hydrolysis progress curves (association rate constant); active site titration on falcipain-2 (FP2) | Concentrations of active FP2 and FP3 were determined by active site titration using E64

Molecules are shown by their SMILES. Peptide text beside a SMILES is read from it. * marks the point of attachment. Cbz = O=C(OCc1ccccc1)*

T1 sequence (Q8I6U4 208-484): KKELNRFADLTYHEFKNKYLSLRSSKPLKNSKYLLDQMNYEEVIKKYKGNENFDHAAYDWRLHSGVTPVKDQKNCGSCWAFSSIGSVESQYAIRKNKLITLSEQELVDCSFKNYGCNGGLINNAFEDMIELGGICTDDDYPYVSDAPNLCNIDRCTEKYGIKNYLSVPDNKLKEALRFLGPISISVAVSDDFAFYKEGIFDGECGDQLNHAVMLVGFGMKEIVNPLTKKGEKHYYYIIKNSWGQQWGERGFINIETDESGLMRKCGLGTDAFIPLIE
T2 sequence (Q8IIL0 208-492): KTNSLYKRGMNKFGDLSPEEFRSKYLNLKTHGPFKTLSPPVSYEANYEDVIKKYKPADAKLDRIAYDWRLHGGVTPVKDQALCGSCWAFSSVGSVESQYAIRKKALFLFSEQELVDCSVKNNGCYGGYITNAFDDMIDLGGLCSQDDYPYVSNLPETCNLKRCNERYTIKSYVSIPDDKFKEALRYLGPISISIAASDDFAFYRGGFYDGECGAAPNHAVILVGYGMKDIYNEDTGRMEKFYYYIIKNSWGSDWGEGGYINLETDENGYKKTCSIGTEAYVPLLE

Take `CC(C)C[C@@H](C=O)NC(=O)[C@H](CC(C)C)NC(=O)[C@H](CC(C)C)NC(=O)OCc1ccccc1` [MG132] (Cbz-Leu-Leu-Leu-aldehyde): the kon at falcipain-2 (FP2) [1] stood at 189000 M⁻¹ s⁻¹; at falcipain-3 (FP3) [2], 412000 M⁻¹ s⁻¹.

For `CC(C)C[C@H](NC(=O)[C@H]1O[C@@H]1C(=O)O)C(=O)NCCCCN=C(N)N` [E64, L-trans-epoxysuccinyl-leucyl-amido(4-guanidino)butane], the kon at falcipain-3 (FP3) [3] is 4090 M⁻¹ s⁻¹; at falcipain-2 (FP2) [4] it was 10300 M⁻¹ s⁻¹.
